Where two headings read alike, the source gives them in different places.
Columns and labels:
Experiment in all cases: whole plant or invertebrate
Format in all cases: in vivo
Plutella xylostella = conditions: for Plutella xylostella Mortality (%) / Plutella xylostella Mortality (%) 500 ppm: 500 ppm, 2nd-instar larvae, leaf immersion feeding; for mortality at 500 ppm: Plutella xylostella, read-out: Plutella xylostella Mortality (%) 500 ppm
Outline: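 Leaf immersion feeding test: 2nd-instar larvae (about 35 per vessel, 3 replicates) kept at 28° C. on 1.0 cm cabbage discs soaked 5 s in a 500 ppm solution with 0.05% Tween-80. Mortality after 24 h of exposure, calculated relative to live larvae in the Tween-80 control.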

Spodoptera exigua = conditions: for Spodoptera exigua Mortality (%) / Spodoptera exigua Mortality (%) 500 ppm: 500 ppm, 2nd-instar larvae, leaf immersion feeding; for mortality at 500 ppm: Spodoptera exigua, 24 h, read-out: Spodoptera exigua Mortality (%) 500 ppm; for Spodoptera exigua Mortality (%) 500 ppm: 24 hours
Outline: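 Leaf immersion feeding: second-instar larvae (about 35 per vessel, triplicate) kept at 28° C on discs treated with 500 ppm test solution in 0.05% Tween-80. Mortality at 24 h, calculated relative to surviving larvae in the solvent control.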

Solenopsis invicta = conditions: water test tube poison-feeding; for Solenopsis invicta Mortality (%) 24 h / Solenopsis invicta Mortality (%) 72 h / Solenopsis invicta Mortality (%) 100 ppm 24 h / Solenopsis invicta Mortality (%) 100 ppm 72 h: 100 ppm; for mortality at 100 ppm: Solenopsis invicta
Outline: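 Mortality (%) of Solenopsis invicta, computed against live counts in control tubes, was recorded 24 h and 72 h after treatment at 25 °C. Compound was offered by oral feeding in test tubes at 100 ppm, diluted from a 10 g/L DMSO stock into water with 5% honey and 0.05% Tween-80.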

Aphis craccivora = conditions: for Aphis craccivora Mortality (%) / Aphis craccivora Mortality (%) 500 ppm: 500 ppm, wingless adults; for Aphis craccivora Mortality (%): immersion 5 seconds, counted after 24 hours; for mortality at 500 ppm: Aphis craccivora, 24 h, read-out: Aphis craccivora Mortality (%) 500 ppm; for Aphis craccivora Mortality (%) 500 ppm: impregnation method, 24 hours
Outline: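 Mortality scored 24 h after treatment as the reduction in live aphids versus a 0.05% Tween-80 control; three replicates, 23° C. Treatment was a 5 s immersion of wingless adults on bean sprouts in 500 ppm test solution containing 0.05% Tween-80, followed by air-drying.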

[1] = 24 h, read-out: Solenopsis invicta Mortality (%) 100 ppm 24 h, 100 ppm, 24 h
[2] = 72 h, read-out: Solenopsis invicta Mortality (%) 100 ppm 72 h, 100 ppm, 72 h

| Compound | Plutella xylostella Mortality (%) (Plutella xylostella) | Spodoptera exigua Mortality (%) (Spodoptera exigua) | Solenopsis invicta Mortality (%) 24 h (Solenopsis invicta; 24 h) [%] | Solenopsis invicta Mortality (%) 72 h (Solenopsis invicta; 72 h) [%] | Aphis craccivora Mortality (%) (Aphis craccivora) | Plutella xylostella Mortality (%) 500 ppm (Plutella xylostella) [%] | Spodoptera exigua Mortality (%) 500 ppm (Spodoptera exigua) [%] | Solenopsis invicta Mortality (%) 100 ppm 24 h (Solenopsis invicta; 24 h) [%] | Solenopsis invicta Mortality (%) 100 ppm 72 h (Solenopsis invicta; 72 h) [%] | Aphis craccivora Mortality (%) 500 ppm (Aphis craccivora) [%] | also measured |
| --- | --- | --- | --- | --- | --- | --- | --- | --- | --- | --- | --- |
| N#Cc1nn2c(c1[S+]([O-])C(F)(F)F)NC(Cl)c1c(Cl)cncc1-2 (stereo not shown) [b-80] | 95 | 90 | 14 | 90 | 100 | – | – | – | – | – | – |
| CC(C)C1Nc2c(OC(F)(F)F)c(C#N)nn2-c2cncc(Cl)c21 (stereo not shown) [b-131] | 95 | 95 | 11 | 100 | 100 | – | – | – | – | – | – |
| N#Cc1nn2c(c1[S+]([O-])C(F)(F)F)NC(Cc1ccccc1)(C(=O)C(F)(F)F)c1c(Cl)cncc1-2 (stereo not shown) [b-27] | 91 | 89 | 19 | 100 | 100 | – | – | – | – | – | – |
| N#CCC1(C(F)(F)F)Nc2c([S+]([O-])C(F)(F)F)c(C#N)nn2-c2c(Cl)cc(C(F)(F)F)cc21 (stereo not drawn) [d-70] | 91 | 90 | 20 | 98 | 99 | – | – | – | – | – | – |
| C=CC1(CC#N)Nc2c([S+](C)[O-])c(C#N)nn2-c2c(Cl)cc(C(F)(F)F)cc21 (stereo not shown) [Compound C22] | – | – | – | – | – | – | – | – | – | – | mortality at 500 ppm (Plutella xylostella): 99%; mortality at 500 ppm (Spodoptera exigua): 94%; mortality at 100 ppm (Solenopsis invicta; [1]): 20%; mortality at 100 ppm (Solenopsis invicta; [2]): 70%; mortality at 500 ppm (Aphis craccivora): 89% |
| COC(=O)CC1Nc2c([S+]([O-])C(F)(F)F)c(C#N)nn2-c2ncc(C(F)(F)F)cc21 (stereo not shown) [a-65] | – | – | – | – | – | 100 | 100 | 26 | 100 | 100 | – |
| N#Cc1nn2c(c1[S+]([O-])C(F)(F)F)NC(CC(=O)C(F)(F)F)(C(F)(F)F)c1cc(C(F)(F)F)cnc1-2 (stereo not shown) [a-63] | – | – | – | – | – | 100 | 100 | 24 | 100 | 100 | – |
| CNCC1(CC#N)Nc2c([S+](C)[O-])c(C(C)=O)nn2-c2c(Cl)cc(C(F)(F)F)cc21 (stereo not shown) [Compound C42] | – | – | – | – | – | – | – | – | – | – | mortality at 500 ppm (Plutella xylostella): 91%; mortality at 500 ppm (Spodoptera exigua): 94%; mortality at 100 ppm (Solenopsis invicta; [1]): 20%; mortality at 100 ppm (Solenopsis invicta; [2]): 70%; mortality at 500 ppm (Aphis craccivora): 100% |
| COC(=O)CC1(C(=O)OC)Nc2c([S+]([O-])C(F)(F)F)c(C(C)=O)nn2-c2c(Cl)cc(C(F)(F)F)cc21 (stereo not drawn) [d-8] | 85 | 82 | 15 | 65 | 90 | – | – | – | – | – | – |
| COC(=O)CC1(C(=O)OC)Nc2c([S+]([O-])C(F)(F)F)c(C#N)nn2-c2cc(OC(F)(F)F)cc(Cl)c21 (stereo not shown) [c-224] | 99 | 95 | 25 | 100 | 100 | – | – | – | – | – | – |
| CC1(C)Nc2c([S+]([O-])C(F)(F)F)c(C#N)nn2-c2ncc(C(F)(F)F)cc21 (stereo not shown) [a-51] | – | – | – | – | – | 91 | 89 | 16 | 95 | 100 | – |
| COC(=O)CC1(C(=O)OC)Nc2c([S+]([O-])C(F)(F)F)c(C#N)nn2-c2ncc(C(F)(F)F)cc21 (stereo not shown) [a-1] | – | – | – | – | – | 100 | 100 | 20 | 100 | 100 | – |
| N#CC1Nc2c([S+]([O-])C(F)(F)F)c(C(F)(F)F)nn2-c2ncc(C(F)(F)F)cc21 (stereo not shown) [a-95] | – | – | – | – | – | 96 | 89 | 21 | 92 | 100 | – |
| COC(=O)C1(CC(=O)OCC(F)F)Nc2c([S+]([O-])C(F)(F)F)c(C#N)nn2-c2cc(C(F)(F)F)cc(Cl)c21 (stereo not shown) [c-20] | 100 | 100 | 14 | 100 | 100 | – | – | – | – | – | – |
| CC[S+]([O-])c1c(C#N)nn2c1NC(/C=C/C(=O)OC)(CC#N)c1cc(C(F)(F)F)cc(Cl)c1-2 (stereo not shown) [Compound C59] | – | – | – | – | – | – | – | – | – | – | mortality at 500 ppm (Plutella xylostella): 100%; mortality at 500 ppm (Spodoptera exigua): 90%; mortality at 100 ppm (Solenopsis invicta; [1]): 29%; mortality at 100 ppm (Solenopsis invicta; [2]): 100%; mortality at 500 ppm (Aphis craccivora): 100% |
| N#Cc1nn2c(c1[S+]([O-])C(F)(F)F)NC(Cl)(CC(F)(F)F)c1c(Cl)cncc1-2 (stereo not shown) [b-48] | 100 | 89 | 15 | 90 | 100 | – | – | – | – | – | – |
| CCOC(=O)CC1(C(=O)OCC)Nc2c([S+]([O-])C(F)(F)F)c(C#N)nn2-c2c(C(F)(F)F)ccc(Cl)c21 (stereo not shown) [e-5] | 100 | 100 | 34 | 100 | 100 | – | – | – | – | – | – |
| CC(=O)C1(CC(F)(F)F)Nc2c([S+]([O-])C(F)(F)F)c(C#N)nn2-c2c(Cl)cc(C(F)(F)F)cc21 (stereo not drawn) [d-48] | 96 | 90 | 26 | 100 | 100 | – | – | – | – | – | – |
| C=CC1(CC#N)Nc2c([S+]([O-])CC)c(C#N)nn2-c2c(Cl)cc(C(F)(F)F)cc21 (stereo not shown) [Compound C21] | – | – | – | – | – | – | – | – | – | – | mortality at 500 ppm (Plutella xylostella): 90%; mortality at 500 ppm (Spodoptera exigua): 95%; mortality at 100 ppm (Solenopsis invicta; [1]): 19%; mortality at 100 ppm (Solenopsis invicta; [2]): 99%; mortality at 500 ppm (Aphis craccivora): 100% |
| COC(=O)CC1(C(=O)OC)Nc2c([S+](C)[O-])c(C#N)nn2-c2c(Cl)cc(C(F)(F)F)cc21 (stereo not drawn) [d-13] | 82 | 81 | 26 | 89 | 99 | – | – | – | – | – | – |
| COC(=O)CC1(C(F)(F)F)Nc2c([S+]([O-])C(F)(F)F)c(C#N)nn2-c2ncc(C(F)(F)F)cc21 (stereo not shown) [a-62] | – | – | – | – | – | 100 | 100 | 21 | 99 | 100 | – |
| N#Cc1nn2c(c1[S+]([O-])C(F)(F)F)NC(CC(=O)C(F)(F)F)(C(=O)C(F)(F)F)c1c(Cl)cncc1-2 (stereo not shown) [b-25] | 100 | 100 | 26 | 100 | 100 | – | – | – | – | – | – |
| CC(=O)CC1(C(=O)C(F)(F)F)Nc2c([S+]([O-])C(F)(F)F)c(C#N)nn2-c2ncc(C(F)(F)F)cc21 (stereo not shown) [a-26] | – | – | – | – | – | 100 | 100 | 34 | 100 | 100 | – |

Source: US11401271B2, “Fused heterocyclic compound, pyrazole-ring-containing fused heterocyclic compound, agricultural composition containing thereof, and method of using the composition” (SOUTH CHINA AGRICULTURAL UNIVERSITY, priority 2017, dated 2022)
